According to patent publication US5955497A, “Bioactive acetogenins” (Purdue Research Foundation, priority 1998, dated 1999):
Converted amounts (≈) assume the structure as drawn. “Also recorded” adds a separate entry of the source.

Assays:
[1] = in vivo; set-up: species or system Artemia salina Leach (brine shrimp); details: brine shrimp larvae, read-out: BST LC30
Procedure: (§1) The cytotoxicities of squamotacin, molvizarin and bullatacin were evaluated, in the same run, against a panel of six cell lines (Table 1). Adriamycin was included as a standard. The relative cytotoxicity of the compounds to non-tumor cells was determined based on the brine shrimp lethality assay (BSA). The panel of tumor cell lines tested includes human lung carcinoma (A-549), human breast carcinoma (MCF-7), human colon adenocarcinoma (HT-29), human renal carcinoma (A-498), human prostate adenocarcinoma (PC-3) and human pancreatic carcinoma (PACA-2).
(§2) The brine shrimp (Artemia salina Leach) test (BST) was performed as modified to determine LC50 values in μg/ml. Zhao et al., Phytochemistry, 33, p. 1065 (1993). Seven-day in vitro cytotoxicity tests against human tumor cell lines were carried out at the Purdue Cancer Center, using standard protocols for A-549 (human lung carcinoma), MCF-7 (human breast carcinoma) and HT-29 (human colon carcinoma), human renal carcinoma (A-498), human prostate adenocarcinoma (PC-3) and human pancreatic carcinoma (PACA-2) with adriamycin as a positive control. The reported ED50 values in μg/ml (Table 1) were tabulated from the same run, except where noted, in order to facilitate comparison for the SAR's.

[2] = test system: PC-3 (human prostate adenocarcinoma); test: seven-day in vitro cytotoxicity, PC-3; format: cell-based; details: for activity relative to the positive control adriamycin: PC-3, versus adriamycin; for selectivity for the prostate cell line (PC-3): PC-3, versus other cell lines of Table 1
Procedure: as §1, §2

[3] = test system: panel of six cell lines (A-549, MCF-7, HT-29, A-498, PC-3, PACA-2); test: cytotoxicity against the panel of six human tumor cell lines; format: cell-based; details: for spectra of cytotoxic selectivities, squamotacin versus molvizarin: Table 1
Procedure: as §1, §2

[4] = test system: A2780 human ovarian cancer xenografts; details: 50 μg/kg, athymic mice bearing A2780 human ovarian cancer xenografts; cited from earlier work

Compound | LC50 [1] [ng/mL] | activity relative to the positive control adriamycin [2] | selectivity for the prostate cell line (PC-3) [2] | spectra of cytotoxic selectivities, squamotacin versus molvizarin [3] | activity relative to bullatacin in the cell panel ([3]; six cell lines, versus bullatacin) | tumor growth inhibition (TGI) [4] [%]
CCCCCCCCCCCC[C@H](O)[C@H]1CC[C@H]([C@H]2CC[C@H]([C@H](O)CCCCCCCC[C@@H](O)CC3=C[C@H](C)OC3=O)O2)O1 [Compound 1, squamotacin] | 6.8 (≈ 0.0109 µM) | over 100 million | high selectively for the prostate cell line (PC-3); also recorded: high selectivity | quite similar | less activity than bullatacin in five of the six cell lines tested, with HT-29 (colon) being the exception | 
CCCCCCCCCC[C@H](O)[C@H]1CC[C@H]([C@H]2CC[C@H]([C@H](O)CCCCCCCCCC[C@@H](O)CC3=C[C@H](C)OC3=O)O2)O1 [Compound 3, bullatacin] |  |  |  |  |  | 67
CCCCCCCCCC[C@H](O)[C@H]1CC[C@H]([C@H]2CC[C@H]([C@H](O)CCCCCCCC[C@@H](O)CC3=C[C@H](C)OC3=O)O2)O1 [Compound 2, molvizarin] |  | over 100 million | high selectively for the prostate cell line (PC-3); also recorded: showed selectivity for PC-3; also recorded: high selectivity | quite similar |  | 
